Assay results taken from patent US10537558B2 (Bantam Pharmaceutical, LLC, priority 2015, dated 2020).

system: BJAB cells; assay: BJAB cell proliferation (Cell Titer Glo); type: cell-based; details: Homo sapiens, read-out: EC50
Protocol: Cells were seeded in white Corning Costar 96-well assay plates at 2500 cells/well in 50 μL of medium. Serial dilutions of test compounds were made in cell culture medium/FBS+0.2% DMSO, and transferred to assay plates in a volume of 50 μL (DMSO at 0.1% final). Plates were maintained at 37° C. for approximately 72 hours. The effect of compounds on cell proliferation was evaluated using the Cell Titer Glo reagent (Promega), according to the manufacturer's instructions. Briefly, 100 μL of reagent was added per well, and after a 10 minute incubation luminescence values were determined on a plate reader (Tecan F200PRO). The percent of luminescence signal relative to untreated controls was calculated for each compound concentration, and EC50 values were determined from dose response data by non-linear regression analysis using Prism (GraphPad). The mTor inhibitor Torin1 (Liu, et al. (2010) J. Med. Chem. 53, 7146.) was used as a control. The data are summarized in the compound table provided above.

First: Cc1nn(-c2nc(-c3ccc(Cl)c(Cl)c3)c(SC(C)C)s2)c(C(=O)O)c1-c1ccc(CO)cc1 [Compound 49, 1-(4-(3,4-dichlorophenyl)-5-(isopropylthio)thiazol-2-yl)-4-(4-(hydroxymethyl)phenyl)-3-methyl-1H-pyrazole-5-carboxylic acid]
Second: Cc1nn(-c2nc(-c3ccc(Cl)c(Cl)c3)c(SC(C)C)s2)c(C(=O)O)c1-c1ccc(C(F)(F)F)cc1 [Compound 52, 1-(4-(3,4-dichlorophenyl)-5-(isopropylthio)thiazol-2-yl)-3-methyl-4-(4-(trifluoromethyl)phenyl)-1H-pyrazole-5-carboxylic Acid]
The EC50 of the first is higher: over 50 µM for the first, 10 to 25 µM for the second.

First: Cc1nn(-c2nc(-c3ccc(Cl)c(Cl)c3)c(SC(C)C)s2)c(C(=O)O)c1-c1ccccc1C(F)(F)F [Compound 50, 1-(4-(3,4-dichlorophenyl)-5-(isopropylthio)thiazol-2-yl)-3-methyl-4-(2-(trifluoromethyl)phenyl)-1H-pyrazole-5-carboxylic acid]
Second: Cc1nn(-c2nc(-c3ccc(Cl)c(Cl)c3)c(SC(C)C)s2)c(C(=O)O)c1-c1cccc(C(F)(F)F)c1 [Compound 51, 1-(4-(3,4-dichlorophenyl)-5-(isopropylthio)thiazol-2-yl)-3-methyl-4-(3-(trifluoromethyl)phenyl)-1H-pyrazole-5-carboxylic Acid]
The EC50 of the first is higher: 5 to 10 µM for the first, 1 to 5 µM for the second.

First: Cc1nn(-c2nc(-c3ccc(Cl)c(Cl)c3)c(SC(C)C)s2)c(C(=O)O)c1C(O)c1ccccc1 (stereo not shown) [Compound 53, 1-(4-(3,4-dichlorophenyl)-5-(isopropylthio)thiazol-2-yl)-4-(hydroxy(phenyl)methyl)-3-methyl-1H-pyrazole-5-carboxylic Acid]
Second: Cc1nn(-c2nc(-c3ccc(Cl)c(Cl)c3)c(SC(C)C)s2)c(C(=O)O)c1-c1cccc(C(C)C)c1 [Compound 61, 1-(4-(3,4-dichlorophenyl)-5-(isopropylthio)thiazol-2-yl)-4-(3-isopropylphenyl)-3-methyl-1H-pyrazole-5-carboxylic Acid]
The EC50 of the first is higher: over 50 µM for the first, 1 to 5 µM for the second.

First: Cc1nn(-c2nc(-c3ccc(Cl)c(Cl)c3)c([S+]([O-])C(C)C)s2)c(C(=O)O)c1Cc1ccccc1[N+](=O)[O-] (stereo not shown) [Compound 54, 1-(4-(3,4-dichlorophenyl)-5-(isopropylsulfinyl)thiazol-2-yl)-3-methyl-4-(2-nitrobenzyl)-1H-pyrazole-5-carboxylic acid]
Second: Cc1nn(-c2nc(-c3ccc(Cl)c(Cl)c3)c(S(=O)(=O)C(C)C)s2)c(C(=O)O)c1Cc1ccccc1[N+](=O)[O-] [Compound 55, 1-(4-(3,4-dichlorophenyl)-5-(isopropylsulfonyl)thiazol-2-yl)-3-methyl-4-(2-nitrobenzyl)-1H-pyrazole-5-carboxylic acid]
The EC50 of the first is higher: 25 to 50 µM for the first, 10 to 25 µM for the second.

First: Cc1nn(-c2nc(-c3ccc(Cl)c(Cl)c3)c(SC(C)C)s2)c(C(=O)O)c1-c1nnc2ccccn12 [Compound 56, 4-([1,2,4]triazolo[4,3-a]pyridin-3-yl)-1-(4-(3,4-dichlorophenyl)-5-(isopropylthio)thiazol-2-yl)-3-methyl-1H-pyrazole-5-carboxylic Acid]
Second: Cc1nn(-c2nc(-c3ccc(Cl)c(Cl)c3)c(SC(C)C)s2)c(C(=O)O)c1-c1cnn2ccccc12 [Compound 64, 1-(4-(3,4-dichlorophenyl)-5-(isopropylthio)thiazol-2-yl)-3-methyl-4-(pyrazolo[1,5-a]pyridin-3-yl)-1H-pyrazole-5-carboxylic acid]
The EC50 of the first is higher: over 50 µM for the first, 10 to 25 µM for the second. The second is the more potent here.

First: Cc1noc(C)c1-c1c(C)nn(-c2nc(-c3ccc(Cl)c(Cl)c3)c(SC(C)C)s2)c1C(=O)O [Compound 57, 1-(4-(3,4-dichlorophenyl)-5-(isopropylthio)thiazol-2-yl)-4-(3,5-dimethylisoxazol-4-yl)-3-methyl-1H-pyrazole-5-carboxylic acid]
Second: Cc1nn(-c2nc(-c3ccc(Cl)c(Cl)c3)c(SC(C)C)s2)c(C(=O)O)c1-c1cnn(C)c1 [Compound 66, 2-(4-(3,4-dichlorophenyl)-5-(isopropylthio)thiazol-2-yl)-2′,5-dimethyl-4,4′-bi(2H-pyrazole)-3-carboxylic acid]
The EC50 of the first is higher: 10 to 25 µM for the first, 5 to 10 µM for the second. The second is the more potent here.

First: Cc1nn(-c2nc(-c3ccc(Cl)c(Cl)c3)c(SC(C)C)s2)c(C(=O)O)c1-c1nc2ccccc2[nH]1 [Compound 58, 4-(1H-benzo[d]imidazol-2-yl)-1-(4-(3,4-dichlorophenyl)-5-(isopropylthio)thiazol-2-yl)-3-methyl-1H-pyrazole-5-carboxylic Acid]
Second: Cc1nn(-c2nc(-c3ccc(Cl)c(Cl)c3)c(SC(C)C)s2)c(C(=O)O)c1-c1nc2ccccc2n1C [Compound 68, 1-(4-(3,4-dichlorophenyl)-5-(isopropylthio)thiazol-2-yl)-3-methyl-4-(1-methy-1H-benzo[d]imidazol-2-yl)-1H-pyrazole-5-carboxylic acid]
The EC50 of the first is lower: 25 to 50 µM for the first, over 50 µM for the second.

`Cc1nn(-c2nc(-c3ccc(Cl)c(Cl)c3)c(SC(C)C)s2)c(C(=O)O)c1-c1cccc(Cl)c1C` [Compound 59, 4-(3-chloro-2-methylphenyl)-1-(4-(3,4-dichlorophenyl)-5-(isopropylthio)thiazol-2-yl)-3-methyl-1H-pyrazole-5-carboxylic Acid] and `COc1ccc(C)cc1-c1c(C)nn(-c2nc(-c3ccc(Cl)c(Cl)c3)c(SC(C)C)s2)c1C(=O)O` [Compound 62, 1-(4-(3,4-dichlorophenyl)-5-(isopropylthio)thiazol-2-yl)-4-(2-methoxy-5-methylphenyl)-3-methyl-1H-pyrazole-5-carboxylic acid] fall in the same range of EC50: 5 to 10 µM for the first, 5 to 10 µM for the second.

First: Cc1nn(-c2nc(-c3ccc(Cl)c(Cl)c3)c(SC(C)C)s2)c(C(=O)O)c1-c1cc(C(F)(F)F)cc(C(F)(F)F)c1 [Compound 60, 4-(3,5-bis(trifluoromethyl)phenyl)-1-(4-(3,4-dichlorophenyl)-5-(isopropylthio)thiazol-2-yl)-3-methyl-1H-pyrazole-5-carboxylic Acid]
Second: Cc1nn(-c2nc(-c3ccc(Cl)c(Cl)c3)c(SC(C)C)s2)c(C(=O)O)c1-c1cncc(C#N)c1 [Compound 69, 4-(5-cyanopyridin-3-yl)-1-(4-(3,4-dichlorophenyl)-5-(isopropylthio)thiazol-2-yl)-3-methyl-1H-pyrazole-5-carboxylic Acid]
The EC50 of the first is lower: 1 to 5 µM for the first, 10 to 25 µM for the second. The first is the more potent here.

`Cc1nn(-c2nc(-c3ccc(Cl)c(Cl)c3)c(SC(C)C)s2)c(C(=O)O)c1-c1ncc[nH]1` [Compound 63, 1-(4-(3,4-dichlorophenyl)-5-(isopropylthio)thiazol-2-yl)-4-(1H-imidazol-2-yl)-3-methyl-1H-pyrazole-5-carboxylic acid] and `CCOc1ncccc1-c1c(C)nn(-c2nc(-c3ccc(Cl)c(Cl)c3)c(SC(C)C)s2)c1C(=O)O` [Compound 70, 1-(4-(3,4-dichlorophenyl)-5-(isopropylthio)thiazol-2-yl)-4-(2-ethoxypyridin-3-yl)-3-methyl-1H-pyrazole-5-carboxylic Acid] fall in the same range of EC50: 10 to 25 µM for the first, 10 to 25 µM for the second.

`Cc1nn(-c2nc(-c3ccc(Cl)c(Cl)c3)c(SC(C)C)s2)c(C(=O)O)c1-c1cnn2cccnc12` [Compound 65, 1-(4-(3,4-dichlorophenyl)-5-(isopropylthio)thiazol-2-yl)-3-methyl-4-(pyrazolo[1,5-a]pyrimidin-3-yl)-1H-pyrazole-5-carboxylic acid] and `Cc1nn(-c2nc(-c3ccc(Cl)c(Cl)c3)c(S(=O)(=O)C(C)C)s2)c(C(=O)O)c1-c1cnn(C)c1` [Compound 67, 2-(4-(3,4-dichlorophenyl)-5-(isopropylsulfonyl)thiazol-2-yl)-2′,5-dimethyl-4,4′-bi(2H-pyrazole)-3-carboxylic acid] fall in the same range of EC50: 25 to 50 µM for the first, 25 to 50 µM for the second.
